Where two headings read alike, the source gives them in different places.
What was measured:
[1] = tested on: native avian liver HMG-CoA synthase (liver enzyme); conditions: read-out: Km AcCoA (Overall Rxn.), apparent value, in presence of 20 μM acetoacetylCoA; cited from earlier work
[2] = tested on: native avian liver HMG-CoA synthase (liver enzyme); conditions: read-out: Km AcCoA (Hydrolase Rxn.), absence of acetoacetyl-CoA; cited from earlier work
[3] = biological target: T1, recombinant avian cytosolic HMG-CoA synthase (wild type, alanine replacing proline at residue 2; SEQ ID NO:2) expressed in E. coli (Gallus gallus, UniProt P23228, P2A); assay: R.CoA binding by EPR (Scatchard plot); design: species or system avian (chicken); conditions: 50 mM sodium phosphate pH 7.0, ambient temperature
T1 construct: Isolation of full length cDNA encoding avian HMG-CoA synthase from a λgt11 library has been reported; made in house; host or cells: E. coli BL21(DE3), plasmid pACS (pET-3d)
T1 sequence (P23228 2-522 P2A limits assumed): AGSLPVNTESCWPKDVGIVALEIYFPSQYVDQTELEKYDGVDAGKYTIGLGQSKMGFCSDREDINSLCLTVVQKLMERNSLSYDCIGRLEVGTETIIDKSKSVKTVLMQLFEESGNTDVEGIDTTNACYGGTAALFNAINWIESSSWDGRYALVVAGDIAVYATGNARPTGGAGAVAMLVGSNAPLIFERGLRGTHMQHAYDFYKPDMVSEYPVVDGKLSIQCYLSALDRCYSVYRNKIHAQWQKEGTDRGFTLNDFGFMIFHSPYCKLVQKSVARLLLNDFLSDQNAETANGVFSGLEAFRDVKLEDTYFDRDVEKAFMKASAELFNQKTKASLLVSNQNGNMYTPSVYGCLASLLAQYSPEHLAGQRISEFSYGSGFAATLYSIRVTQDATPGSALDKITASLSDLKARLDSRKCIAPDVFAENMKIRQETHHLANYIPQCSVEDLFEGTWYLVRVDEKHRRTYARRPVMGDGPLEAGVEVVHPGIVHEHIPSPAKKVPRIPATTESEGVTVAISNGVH
Description: Measurement of R.CoA Binding by EPR. Conventional X-band EPR spectra were recorded using a Varian Century-Line 9-GHz spectrometer. The samples contained variable concentrations of HMG-CoA synthase sites (0-930 μM) in 50 mM sodium phosphate buffer, pH 7.0, and 50 or 150 μM R.CoA. R.CoA bound to HMG-CoA synthase was calculated by comparing the amplitudes of high, center, or low-field lines of sample spectra to the corresponding lines observed with a solution containing an equal concentration of R.CoA in buffer. The data were analyzed (Miziorko et al., (1979) Biochemistry 18, 399-403) by Scatchard plot using linear regression analysis. The spectra were recorded at ambient temperature with a modulation amplitude of 1 G, modulation frequency of 100 KHz and microwave power 5 mW. Field sweep was 100 G and time constant was 0.5 sec. The EPR spectrum of bound R.CoA was obtained at 5 G modulation amplitude and variable gain. Rotational correlation time of the bound spin label was determined using a spectral simulation algorithm (Freed, (1976) Spin Labeling: Theory and Applications (L. Berliner, ed.) 1, 53-132; Schneider, et al. (1989) Biological Magnetic Resonance 8, 1-76).

[4] = substrate: CC(=O)SCCNC(=O)CCNC(=O)[C@H](O)C(C)(C)COP(=O)(O)OP(=O)(O)OC[C@H]1O[C@@H](n2cnc3c(N)ncnc32)[C@H](O)[C@@H]1OP(=O)(O)O; assay: purified protein, by the assay type; conditions: other: recombinant enzyme

CC(=O)SCCNC(=O)CCNC(=O)[C@H](O)C(C)(C)COP(=O)(O)OP(=O)(O)OC[C@H]1O[C@@H](n2cnc3c(N)ncnc32)[C@H](O)[C@@H]1OP(=O)(O)O [AcCoA, acetyl-CoA]
Km [1]: 300 µM
Km [2]: 14 µM

CC(C)(COP(=O)(O)OP(=O)(O)OC[C@H]1O[C@@H](n2cnc3c(N)ncnc32)[C@H](O)[C@@H]1OP(=O)(O)O)[C@@H](O)C(=O)NCCC(=O)NCCSC(=O)C1CC(C)(C)N([O])C1(C)C (some centres unmarked) [R.CoA]
Kd [3]: 102 µM

B1: recombinant avian cytosolic HMG-CoA synthase (wild type, alanine replacing proline at residue 2; SEQ ID NO:2) expressed in E. coli (Gallus gallus; P2A) (protein)
chain: AGSLPVNTESCWPKDVGIVALEIYFPSQYVDQTELEKYDGVDAGKYTIGLGQSKMGFCSDREDINSLCLTVVQKLMERNSLSYDCIGRLEVGTETIIDKSKSVKTVLMQLFEESGNTDVEGIDTTNACYGGTAALFNAINWIESSSWDGRYALVVAGDIAVYATGNARPTGGAGAVAMLVGSNAPLIFERGLRGTHMQHAYDFYKPDMVSEYPVVDGKLSIQCYLSALDRCYSVYRNKIHAQWQKEGTDRGFTLNDFGFMIFHSPYCKLVQKSVARLLLNDFLSDQNAETANGVFSGLEAFRDVKLEDTYFDRDVEKAFMKASAELFNQKTKASLLVSNQNGNMYTPSVYGCLASLLAQYSPEHLAGQRISEFSYGSGFAATLYSIRVTQDATPGSALDKITASLSDLKARLDSRKCIAPDVFAENMKIRQETHHLANYIPQCSVEDLFEGTWYLVRVDEKHRRTYARRPVMGDGPLEAGVEVVHPGIVHEHIPSPAKKVPRIPATTESEGVTVAISNGVH
Km ([4]; absence of acetoacetyl-CoA, pH 8.0, 30° C., pH 8.0): 12 µM
Km ([4]; apparent value, in presence of 20 μM acetoacetylCoA, 30° C., pH 8.2, pH 8.2): 270 µM

From patent US5668001A, “3-hydroxy-3-methyl-glutaryl-coa synthase preparation with improved stability” (MCW Research Foundation, Inc., priority 1994, dated 1997)
